Experimental data from PubChem BioAssay (NCI).
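Grown in 96-well plates, cells were treated for 48 hours with each compound at five concentrations. Insufficient inhibition: endpoint recorded as highest concentration tested. TGI: total growth inhibition.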 Where a SMILES comes first, the peptide text is derived from it. [ ]: non-standard residue; d: D form. pGlu = O=C1CC[CH](C(=O)O)N1

Columns and labels:
Assay in all cases: growth of human tumour cells (NCI), 48 h
[1] = tested on: COLO 205 colon
[2] = tested on: EKVX NSCLC
[3] = tested on: K-562 leukemia
[4] = tested on: MALME-3M melanoma
[5] = tested on: OVCAR-8 ovarian
[6] = tested on: RPMI-8226 leukemia
[7] = tested on: SF-268 CNS
[8] = tested on: SK-OV-3 ovarian
[9] = tested on: SN12C renal
[10] = tested on: TK-10 renal

Row | Structure (SMILES) | TGI [1] [µM] | TGI [2] [µM] | TGI [3] [µM] | TGI [4] [µM] | TGI [5] [µM] | TGI [6] [µM] | TGI [7] [µM] | TGI [8] [µM] | TGI [9] [µM] | TGI [10] [µM]
1 | Cc1ccc(S(=O)(=O)n2cc(C=O)c(-c3cn(S(=O)(=O)c4ccc(C)cc4)cc3-c3cn(S(=O)(=O)c4ccc(C)cc4)cc3C=O)c2)cc1 | > 100 | > 100 | > 100 | > 100 | > 100 | > 100 | > 100 | > 100 | > 100 | 72
2 | CC1OC(OC2C(O)COC(OC3C(C)OC(OC4C(OC(=O)[C@]56CCC(C)(C)C[C@@H]5C5=CCC7[C@@]8(C)C[C@H](O)[C@H](OC9OC(CO)C(O)C(O)C9O)[C@@](C)(CO)[C@@H]8CC[C@@]7(C)[C@]5(C)CC6)OCC(O)C4O)C(O)C3O)C2O)C(O)C(O)C1O (stereo not given in full) | 38.7 | 33.1 | > 100 | 64.3 | 43.4 | > 100 | 49.4 | 37.8 | 44.4 | 35.3
3 | C(=N\c1nc2cc3sc(/N=C/c4ccccc4)nc3cc2s1)/c1ccccc1 | > 100 | > 100 | > 100 | > 100 | > 100 | > 100 | > 100 | > 100 | > 100 | > 100
4 | CCOC(=O)C(NC(=O)c1cccc(Cl)c1)(Nc1ccc(S(=O)(=O)Nc2cc(C)on2)cc1)C(F)(F)F (stereo not given) | > 100 | > 100 | > 100 | > 100 | > 100 | > 100 | > 100 | > 100 | > 100 | > 100
5 | Cc1nc(-c2ccccc2)cn2c1nc1ccccc12 | > 100 | > 59.6 | > 100 | 48.9 | 37.3 | > 100 | > 66.8 | 26 | > 84.7 | > 74.7
6 | CCOC(=O)c1c(O)cn2c1[nH]c1cccc3cccc2c31 | > 100 | > 100 | > 100 | > 100 | > 100 | > 100 | > 100 | > 100 | > 100 | > 100
7 | Cc1cc(N(CCC#N)CCC#N)ccc1/C(N=Nc1ccc([N+](=O)[O-])cc1)=N\NC(=O)c1cc(Cl)ccc1O | 54.2 | 82.4 | > 100 | > 100 | 63 | > 100 | 91.3 | > 100 | > 100 | > 100
8 | O=C(Nc1ccccc1)N(CCN(Cc1ccccc1)C(=O)Nc1ccccc1)CCN(Nc1ccccc1)C(=O)Nc1ccccc1 | > 100 | > 100 | > 100 | > 100 | > 100 | > 100 | > 100 | > 100 | > 100 | > 100
9 | CCn1c(SCC(=O)N/N=C2\SCC(=O)N2c2ccc(C)cc2)nc2ccccc2c1=O | > 100 | 46.2 | > 100 | 45.6 | 35.5 | 52.7 | 47.7 | 36 | 50.4 | 31
10 | O=C(Cc1ccc2ccccc2c1)NCc1ccc(C(=O)NCCc2ccccc2)cc1 | > 100 | > 100 | > 100 | > 100 | > 100 | > 100 | > 100 | > 100 | > 100 | > 100
11 | COc1ccc(/[N+]([O-])=C/c2ccc(OC(=S)S)c(OC)c2)cc1 | > 100 | > 100 | > 100 | > 100 | > 100 | > 100 | > 100 | > 100 | > 100 | > 100
12 | NC1=Nc2ccccc2Sc2nncn21 | > 100 | > 100 | > 100 | > 100 | > 100 | > 100 | > 100 | > 100 | > 100 | > 100
13 | O=[N+]([O-])c1ncc(N(CCO)CCO)s1 | 49.6 | > 100 | 57.5 | 36.3 | > 100 | 44.8 | > 100 | > 100 | > 100 | 79.5
14 | CC(C)(C)OC(=O)NCC(CNC(=O)OC(C)(C)C)C(N)=O | > 100 | > 100 | > 100 | > 100 | > 100 | > 100 | > 100 | > 100 | > 100 | > 100
15 | CC(NC(=O)C1CCC(=O)N1)C(=O)N1CCCC1C(N)=O (stereo not drawn) ([pGlu]-Ala-Pro-NH2; configuration not given here) | > 100 | > 100 | > 100 | > 100 | > 100 | > 100 | > 100 | > 100 | > 100 | > 100
16 | CC(NC1=NCCO1)c1ccccc1Cl (stereo not given) | > 100 | > 100 | > 100 | > 100 | > 100 | > 100 | > 100 | > 100 | > 100 | > 100
17 | O=c1[nH]c(NCc2cccnc2)nc2nc[nH]c12 | > 100 | > 100 | > 100 | > 100 | > 100 | > 100 | > 100 | > 100 | > 100 | > 100
18 | COc1ccc2c(c1)c1c3c(ccc4ncn2c43)N(CCO)CCN=1 | 0.158 | 1.08 | 0.228 | 0.43 | 1.72 | 2.56 | 1.86 | 2.03 | 0.519 | 2.23
19 | COc1ccc(C2CC(c3c(O)ccc4ccccc34)=NN2)cc1OC (stereo not given) | 46.5 | 22.1 | > 100 | 16.3 | 17.8 | 65 | 11.5 | 28.8 | 32.2 | 14.4
20 | CC(C)(C)c1cc(/C=C(\C#N)C2=NCCO2)cc(C(C)(C)C)c1O | 3.39 | 17.2 | 16.5 | 19.6 | 19.6 | 4.74 | 16.1 | > 32.9 | 10.1 | 16
21 | C#CC1(O)CCC2[C@@H]3CCc4cc(Oc5nc(F)nc(-c6c(C)c(C(=O)OCC)n7ccccc67)n5)ccc4C3CC[C@@]21C (stereo not given in full) | > 100 | > 100 | > 100 | > 100 | > 100 | > 100 | > 100 | > 100 | > 100 | > 100
22 | CN(C)Cc1cc(Cl)c(O)c(CN(C)C)c1 | > 100 | > 100 | > 100 | > 100 | > 100 | > 100 | > 100 | > 100 | > 100 | > 100
